{
  "source": "patent US10780069B2",
  "about": "“Use of GC-1 in transplant related population” (University of Pittsburgh—Of the Commonwealth System of …, priority 2017, dated 2020)",
  "origin": "cited, not measured here",
  "tested_on": "preneoplastic hepatocytes",
  "conditions": "resistant-hepatocyte model of hepatocarcinogenesis (T3, rats); Ledda-Columbano 2000, Perra 2009; cited from earlier work",
  "data": [
    {"smiles": "Cc1cc(OCC(=O)O)cc(C)c1Cc1ccc(O)c(C(C)C)c1", "note": "[GC-1, Sobetirome]", "values": [
      {"measurement": "effect on preneoplastic lesions / carcinogenic process", "value": "negatively influence the carcinogenic process"}
    ]}
  ]
}
